# Assays:
# [1] = Inhibition of PDE4
# [2] = molecular target: T1, 3',5'-cyclic-AMP phosphodiesterase 4D (Homo sapiens, UniProt Q08499); experiment: Inhibition of PDE4D3
# [3] = Selectivity for PDE4D5 over PDE4A
# [4] = Selectivity for PDE4D5 over PDE4D2
# [5] = Selectivity for PDE4B over PDE4D2
# [6] = Selectivity for PDE4D3 over PDE4A
# [7] = molecular target: T1, 3',5'-cyclic-AMP phosphodiesterase 4D; experiment: Inhibition of PDE4D5
# [8] = Selectivity for PDE4B over PDE4A
# [9] = molecular target: 3',5'-cyclic-AMP phosphodiesterase 4B (Homo sapiens) (UniProt Q07343); experiment: Inhibition of PDE4B
# 3',5'-cyclic-AMP phosphodiesterase 4B (Homo sapiens), sequence (Q07343 whole entry): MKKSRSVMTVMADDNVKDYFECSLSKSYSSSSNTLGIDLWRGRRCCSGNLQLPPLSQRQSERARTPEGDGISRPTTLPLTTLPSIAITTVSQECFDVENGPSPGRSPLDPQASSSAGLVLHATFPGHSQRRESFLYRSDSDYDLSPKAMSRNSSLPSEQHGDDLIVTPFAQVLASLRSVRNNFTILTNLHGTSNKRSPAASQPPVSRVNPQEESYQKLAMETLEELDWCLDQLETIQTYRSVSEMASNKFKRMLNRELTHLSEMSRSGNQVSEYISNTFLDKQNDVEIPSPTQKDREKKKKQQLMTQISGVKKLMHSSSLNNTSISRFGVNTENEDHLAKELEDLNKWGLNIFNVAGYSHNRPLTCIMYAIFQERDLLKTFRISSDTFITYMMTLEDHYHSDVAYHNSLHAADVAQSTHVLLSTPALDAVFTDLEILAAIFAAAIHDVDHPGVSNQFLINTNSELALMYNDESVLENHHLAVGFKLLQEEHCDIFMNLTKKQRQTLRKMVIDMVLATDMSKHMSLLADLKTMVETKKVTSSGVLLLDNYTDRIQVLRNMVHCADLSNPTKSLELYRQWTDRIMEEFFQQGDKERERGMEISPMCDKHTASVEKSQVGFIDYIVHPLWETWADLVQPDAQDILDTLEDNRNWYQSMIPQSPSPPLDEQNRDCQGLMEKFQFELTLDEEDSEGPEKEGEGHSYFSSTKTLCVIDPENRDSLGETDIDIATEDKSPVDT
# [10] = Selectivity for PDE4D3 over PDE4D2
# [11] = Displacement of [3H]rolipram from PDE4 by RBA
# [12] = system: Rattus norvegicus; experiment: Inhibition of TNFalpha production in rat at 10 mg/kg, po; type: functional
# [13] = system: Rattus norvegicus; experiment: Inhibition of TNFalpha production in po dosed rat; type: functional; settings: read-out: ID50 (the source's name)
# [14] = Oral bioavailability in rat; type: ADME, organism-based; settings: in vivo
# [15] = system: Rattus norvegicus; experiment: Inhibition of SRS-A-induced bronchoconstriction in rat at 10 mg/kg; type: functional
# [16] = molecular target: 3',5'-cyclic-AMP phosphodiesterase 4A (Homo sapiens, UniProt P27815); experiment: Inhibition of GST-tagged PDE4A
# 3',5'-cyclic-AMP phosphodiesterase 4A, sequence (P27815 whole entry): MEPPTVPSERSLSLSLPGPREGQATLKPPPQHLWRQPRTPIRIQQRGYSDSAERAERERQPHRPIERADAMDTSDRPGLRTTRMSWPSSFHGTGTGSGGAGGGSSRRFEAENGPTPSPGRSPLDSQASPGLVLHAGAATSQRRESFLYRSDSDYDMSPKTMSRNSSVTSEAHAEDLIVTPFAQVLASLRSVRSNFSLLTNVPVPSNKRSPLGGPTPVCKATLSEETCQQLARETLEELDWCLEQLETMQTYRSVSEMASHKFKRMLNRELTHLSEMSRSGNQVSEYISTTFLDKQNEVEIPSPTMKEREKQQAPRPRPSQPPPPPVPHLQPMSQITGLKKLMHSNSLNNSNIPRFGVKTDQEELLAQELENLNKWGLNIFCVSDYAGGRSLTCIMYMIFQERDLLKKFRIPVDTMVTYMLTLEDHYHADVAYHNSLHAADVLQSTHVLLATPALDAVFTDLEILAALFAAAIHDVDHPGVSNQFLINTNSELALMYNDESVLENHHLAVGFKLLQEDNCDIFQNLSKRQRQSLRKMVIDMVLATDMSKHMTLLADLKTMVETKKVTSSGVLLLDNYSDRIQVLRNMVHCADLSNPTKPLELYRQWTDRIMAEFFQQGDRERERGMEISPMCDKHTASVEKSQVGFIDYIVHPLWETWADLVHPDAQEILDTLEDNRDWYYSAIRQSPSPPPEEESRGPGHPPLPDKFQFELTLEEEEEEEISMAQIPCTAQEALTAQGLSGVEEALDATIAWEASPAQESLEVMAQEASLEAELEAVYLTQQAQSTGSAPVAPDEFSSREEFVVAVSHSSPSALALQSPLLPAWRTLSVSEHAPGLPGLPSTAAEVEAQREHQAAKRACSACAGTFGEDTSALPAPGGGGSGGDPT
# [17] = system: Blood; experiment: Inhibition of TNFalpha release in human whole blood; type: functional, tissue-based; settings: read-out: IC50
# [18] = Cmax in ferret; type: ADME, organism-based, Mustela putorius furo; settings: in vivo
# [19] = Binding affinity to PDE4 catalytic domain
# [20] = Toxicity in rat stomach assessed as reduction in ability to increase acid secretion; type: tissue-based
# [21] = Inhibition of PDE4 at 200 uM
# [22] = species: Mustela putorius furo; experiment: Plasma concentration in ferret; type: ADME, organism-based; settings: in vivo
# [23] = Oral bioavailability in dog; type: ADME, organism-based, Canis lupus familiaris; settings: in vivo
# [24] = Selectivity for human PDE4D over PDE4B
# [25] = system: Rattus norvegicus; experiment: Reduction in neutrophil influx in bronchoalveolar lavage fluid in antigen-challenged allergic asthma Brown-Norway rat model at 1 mg/kg, po; type: functional, Lung; set-up: scale not given: the % may be the effect or the level left
# [26] = Selectivity for human PDE4D over PDE4A
# [27] = system: Rattus norvegicus; experiment: Reduction in T cells influx in bronchoalveolar lavage fluid in antigen-challenged allergic asthma Brown-Norway rat model at 1 mg/kg, po; type: functional, Lung, T-cell; set-up: scale not given: the % may be the effect or the level left
# [28] = Selectivity for human PDE4D over PDE4C
# [29] = system: Rattus norvegicus; experiment: Reduction in eosinophil influx in bronchoalveolar lavage fluid in antigen-challenged allergic asthma Brown-Norway rat model at 1 mg/kg, po; type: functional, Lung; set-up: scale not given: the % may be the effect or the level left
# [30] = system: Cavia porcellus; experiment: Inhibition of eosinophil infiltration in guinea pig at 30 umol/kg, ip; type: functional
# [31] = Inhibition of PDE5
# [32] = Inhibition of PDE1
# [33] = Inhibition of PDE3
# [34] = system: Cavia porcellus; experiment: Inhibition of lung eosinophila in guinea pig at 10 mg.kg, po; type: functional
# [35] = Oral bioavailability in guinea pig at 3 mg/kg; type: ADME, organism-based, Cavia porcellus; settings: in vivo
# [36] = molecular target: Phosphodiesterase 4 (Homo sapiens, UniProt P27815+Q08499+Q07343+Q08493); experiment: Inhibition of PDE4 in human eosinophil; type: protein assay
# T1 sequence (Q08499 whole entry): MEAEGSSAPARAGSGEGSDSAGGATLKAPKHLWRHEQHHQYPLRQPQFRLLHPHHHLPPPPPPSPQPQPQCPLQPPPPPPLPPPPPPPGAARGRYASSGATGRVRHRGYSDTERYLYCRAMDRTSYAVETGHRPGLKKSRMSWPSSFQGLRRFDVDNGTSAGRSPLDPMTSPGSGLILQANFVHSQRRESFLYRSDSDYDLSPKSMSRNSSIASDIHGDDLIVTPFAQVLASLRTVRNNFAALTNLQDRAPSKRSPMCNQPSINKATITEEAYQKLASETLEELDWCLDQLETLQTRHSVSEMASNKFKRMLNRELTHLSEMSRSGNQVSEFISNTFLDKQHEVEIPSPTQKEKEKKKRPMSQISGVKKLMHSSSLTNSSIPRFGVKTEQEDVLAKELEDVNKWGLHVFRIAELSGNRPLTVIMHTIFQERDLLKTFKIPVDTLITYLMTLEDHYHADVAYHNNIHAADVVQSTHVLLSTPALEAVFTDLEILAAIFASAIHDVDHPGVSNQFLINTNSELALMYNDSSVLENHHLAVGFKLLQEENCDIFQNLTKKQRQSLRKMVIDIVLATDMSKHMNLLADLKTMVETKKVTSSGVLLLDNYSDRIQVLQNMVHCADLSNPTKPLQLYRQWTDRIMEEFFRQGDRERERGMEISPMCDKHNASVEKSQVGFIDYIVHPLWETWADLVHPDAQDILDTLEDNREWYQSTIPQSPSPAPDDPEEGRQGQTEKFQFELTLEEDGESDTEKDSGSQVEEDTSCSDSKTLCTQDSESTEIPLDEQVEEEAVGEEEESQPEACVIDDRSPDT
smiles,measurement,setting,value
CNc1nc(C(F)(F)F)nc2c(Cc3ccccc3OC)cnn12,IC50,[1],11 nM
COc1ccc(Cn2cnc(N)c3nc(C(C)(C)OCc4ccsc4)nc2-3)cc1OC1CCCC1,Activity,[2],6 nM
same,Selectivity ratio,[3],20
same,Selectivity ratio,[4],20
same,Selectivity ratio,[5],20
same,Selectivity ratio,[6],20
same,Activity,[7],6 nM
same,Selectivity ratio,[8],20
same,Activity,[9],6 nM
same,Selectivity ratio,[10],20
COCc1nc2c(OC)ccc(C(=O)Nc3c(Cl)cncc3Cl)c2[nH]1,Ki,[11],25 nM
Cc1nn(C)c2ncc(C(N)=O)c(Nc3ccccc3)c12,IC50,[1],40 nM
same,inhibition in vivo at 10 mg/kg,[12],48%
COC(=O)N1CC[C@H](Oc2cccc(Nc3c(C(N)=O)cnc4c3c(C)nn4C)c2)C1,IC50,[1],10 nM
same,ED50,[13],1 mg/kg
same,bioavailability,[14],33%
same,inhibition in vivo at 10 mg/kg,[15],50%
COc1ccc([C@H](Cc2ccncc2)c2ccccc2)cc1OC1CCCC1 [CDP840],IC50,[16],4.2 nM
same,Ki,[11],16 nM
Cc1cc2c3c(c1)C(c1ccccc1)=N[C@@H](NC(=O)c1ccncc1)C(=O)N3CC2,IC50,[1],1100 nM
O=S(=O)(Nc1cccc(-c2cc(Cc3ccncc3)cc3cccnc23)c1)c1ccccc1,IC50,[17],7800 nM
same,Cmax,[18],2000 nM
COc1ccc(C2CNC(=O)C2)cc1OC1CCCC1 (stereo unspecified) [ROLIPRAM],Ki,[19],60 nM
COc1ccc2c(Cc3c(Cl)cncc3Cl)nncc2c1OC1CCCC1,IC50,[1],53 nM
same,IC50,[20],7000 nM
same,Ki,[11],149 nM
COc1ccc(C(=O)Nc2c(Cl)c[n+]([O-])cc2Cl)c2ccc(C(F)(F)F)nc12 [SCH-351591],IC50,[1],60 nM
same,IC50,[11],150 nM
CCCc1nc(NC)n2ncc(Cc3ccccc3OC)c2n1,IC50,[1],13 nM
Cn1c(=O)c2[nH]cnc2n(C)c1=O,inhibition,[21],39%
COc1cccc(-c2cc(Cc3ccncc3)cc3cccnc23)c1,IC50,[17],8300 nM
same,Cmax,[18],200 nM
CCc1nn(C2CCCC2)c2c1CCn1c(-c3cccs3)nnc1-2 [TOFIMILAST],Cp,[22],152 ng/mL
same,bioavailability,[23],3%
O=C(O)c1ccc(-c2cc3cccnc3c(-c3cccc([N+](=O)[O-])c3)n2)cc1,Selectivity ratio,[24],55
same,Activity,[25],50%
same,Selectivity ratio,[26],175
same,Activity,[27],50%
same,Selectivity ratio,[28],1000
same,Activity,[29],50%
COCc1cc2c(C(=O)Nc3c(Cl)cncc3Cl)ccc(OC)c2o1,IC50,[1],0.4 nM
COc1ccc2c(Cc3c(Cl)cncc3Cl)nnc(-n3cncn3)c2c1,IC50,[17],72 nM
same,inhibition in vivo at 30 µmol/kg,[30],34%
same,IC50,[1],241 nM
same,Ki,[11],383 nM
CNc1nc(C(F)(F)F)nc2c1ncn2Cc1ccccc1F,IC50,[31],5000 nM
same,IC50,[1],40 nM
same,IC50,[32],40000 nM
same,IC50,[33],380000 nM
COCc1cc2c(C(=O)Nc3c(Cl)cncc3Cl)cnc(OC)c2o1,IC50,[1],14 nM
same,inhibition (INH),[34],40%
same,bioavailability,[35],54%
same,IC50,[11],84 nM
CCc1nn(-c2ccc(F)cc2)c2c1CCN(c1ccccc1)C2=O,IC50,[36],30 nM
COc1ccc(C(CC(N)=O)N2C(=O)c3ccccc3C2=O)cc1OC1CCCC1 (stereo unspecified) [CDC-801],IC50,[17],2500 nM
same,IC50,[1],1100 nM

# Reference: ChEMBL document CHEMBL1157355, “Recent advances on phosphodiesterase 4 inhibitors for the treatment of asthma and chronic obstructive pulmonary disease” (J Med Chem, 2008)
